Reference: patent US20090305963A1, “Lipocalin 2 for the Treatment, Prevention, and Management of Cancer Metastasis, Angiogenesis, and Fibrosis” (priority 2005, published 2009)
Structures can show the parent of a compound that is named as a salt. Where a SMILES comes first, the peptide text is derived from it. The star is where a group is joined. Cbz = O=C(OCc1ccccc1)*

Assays:
E-cadherin [1] = assay: EMT phenotype, E-cadherin and vimentin protein in 4T1 clones (microscopy, western blot); type: cell-based, mouse; settings: for rank order of effect on R cell epithelial morphology and E-cadherin expression: R cells, 15 or 50 μg/ml, dose dependent
Text: (§1) Cells were stained as described previously (Mammoto et al., Cancer Lett. 184:165-170, 2002) and images acquired with a Delta Vision system (Applied Precision, Issaquah, Wash.) equipped with an Axiovert 100 microscope (Carl Zeiss MicroImaging Inc., Shelton, Conn.) and a Photometrics 300 series scientific-grade cooled CCD camera, reading 12-bit images, and using the 63/1.4 NA plan-Neofluar objective. For immunoprecipitation and immunoblotting, tissues were weighed, diced, soaked in ice cold RIPA buffer with 1 mM phenylmethylsulfonyl fluoride (PMSF), 1 μg/ml Aprotinin, 1 mM Na3VO4, 1 nM NaF, homogenized on ice, centrifuged at 10,000 g for 10 minutes at 4° C., and the supernatant fluid collected as total cell lysate. Cultured cells were washed, scraped, and solubilized in a lysis buffer containing 20 mM Tris-HCl pH 7.5, 150 mM NaCl, 0.5% Triton X-100, 1% aprotinin, and 1 mM PMSF. After 20 minutes on ice, the cells were pelleted by centrifugation and the supernatants were used as a cell lysate. Cell lysates or immunoprecipitated cell lysates were separated by PAGE (NuPAGE® gels; Invitrogen, Carlsbad, Calif.), followed by electroblotting onto a polyvinylidenedifluoride membrane (PVDF). Protein bands were detected using SuperSignal® West Pico Chemiluminescent Substrate (Pierce Chemical Co., Rockford, Ill.) (Hanai et al., J. Cell. Biol. 158:529-539, 2002).
To assess the effects of lipocalin 2 on ras-mediated transformation, we chose a syngeneic spontaneously metastasizing murine breast cancer model (4T1 cell line) and accelerated its metastatic potential by introduction of constitutively active mouse H-ras mutant A12 using retrovirus. […] We generated stable clones of 4T1-ras cells expressing lipocalin 2 (RL) by transfection of a lipocalin 2 expression plasmid (lipocalin 2-pcDNA3.1). […] (FIG. 2A, lower panel, and FIG. 2B). […] Expression of E-cadherin in RL cells was dependent on the dose of lipocalin 2-pcDNA3.1 expression vector (transiently introduced in a population of R cells), on a conditioned medium containing lipocalin 2 (FIGS. 2D-E), as well as on recombinant lipocalin 2 protein. R cells shown in FIG. 2D were seeded in a 6-well plate and transfected with lipocalin 2 by FuGene 6 at 40% confluency. After 48 hours, cells were trypsinized, respread on 6-well plate, and transfected again in the same conditions. After 72 hours, cells were harvested and analyzed by western blotting. EV cells in FIG. 2E were seeded in a 6-well plate with 1 ml/well containing 10% FCS with DMEM and 2 ml of CM was added at 10% confluency. After 72 hours, cells were harvested and analyzed by western blotting. CM is a mixture of media from 293T cells transfected with lipocalin 2 and from 293 cells transfected with empty vector (pcDNA3.1).

VEGF = assay: Measurement of VEGF levels by ELISA in conditioned media of 4T1 cells; type: cell-based, mouse; settings: R cells; 2 days of incubation; dose dependent
Experimental: Conditioned media of 4T1 cells were collected after 2 days of incubation. Murine VEGF levels were determined in duplicate using a commercially available sandwich ELISA kit (R&D Systems, Minneapolis, Minn.), with a affinity purified polyclonal antibody specific for mouse VEGF has been pre-coated onto a microplate. Results were compared with a standard curve of mouse VEGF with a lower detection limit of 7 pg/mL. A model 680 microplate-reader (Bio-Rad Laboratories, CA) was used to measure light intensity correlating with VEGF binding.

E-cadherin [2] = assay: E-cadherin phosphorylation (immunoprecipitation and western blot); type: cell-based, mouse; settings: R cells vs RL cells or R cells with inhibitor
Text: as §1

E-cadherin [3] = assay: Induction of E-cadherin in embryonic mesenchyme; type: cell-based, rat; settings: enterochelin siderophore complex with gallium instead of iron
raf, MEK, and ERK1/2 = assay: Western blots with phosphospecific antibodies for ras-MAPK signaling molecules; type: cell-based, mouse; settings: R cells
Text: as §1, with “After 20 minutes on ice, the cells were pelleted by centrifugation and the supernatants were used as a cell lysate. Cell lysates or immunoprecipitated cell lysates were separated by PAGE (NuPAGE® gels; Invitrogen, Carlsbad, Calif.), followed by electroblotting onto a polyvinylidenedifluoride membrane (PVDF).” left out
For these experiments, EV and R cells were starved in DMEM without serum for 48 hours. […] Signaling events downstream of ERK activation were then monitored with a multi-copy serum-response element (SRE)-luciferase construct introduced into EV, R, and RL (FIG. 6B). […]

[4] = tested on: serum-response element (SRE); assay: SRE-luciferase assay; type: cell-based, mouse
Experimental: After transient transfection of the plasmids, cells were incubated for 20 hours in 10% FCS and luciferase activity in the cell lysates was determined using a luminometer normalized by sea-pansy luciferase activity under the control of the thymidine kinase promoter. The Dual-Luciferase Reporter Assay System was purchased from Promega (Madison, Wis.) (Hanai et al., J. Biol. Chem. 277:16464-16469, 2002).
For these experiments, EV and R cells were starved in DMEM without serum for 48 hours. During this time, half of the R cells were incubated with 50 μg/ml of lipocalin 2 protein with iron-loaded siderophore (R+Lipo:Sid:Fe), after which all cells were incubated with 10% FCS containing DMEM for 20 minutes and then harvested for western blotting with phosphospecific antibodies. Signaling events downstream of ERK activation were then monitored with a multi-copy serum-response element (SRE)-luciferase construct introduced into EV, R, and RL (FIG. 6B). For these experiments, an SRE-luciferase assay was performed on 4T1 clones after the 48 hour incubation in serum free DMEM. […] Just like R cells treated with exogenous protein (FIG. 6A), R cells infection with recombinant adenovirus carrying lipocalin 2, but not GFP, reduced SRE-luciferase activity, MEK, and ERK1/2 phosphorylation, without altering ras expression.
To localize the effect of lipocalin on ras-MAPK signaling, we utilized an adenovirus and expression plasmid encoding a constitutively active MEK (MEK-DD) (Murakami et al., Cell Growth Differ 10:333-342, 1999). MEK-DD adenoviral infection of EV cells led to increased SRE-luciferase activity (increased MAPK activity). […] RL cells in a 6-well plate were infected with an adenovirus carrying the MEK dominant active form (MEK-DD) and a Lac-Z adenovirus at the indicated multiplicities (MOI) in 2% serum including DMEM medium for 48 hours. Cells were then trypsinized, respread on 6-well plate at 5-10% confluency, and incubated with 10% serum including DMEM medium. Cell lysates were collected for western blotting 48 hours after the final plating (FIG. 6D). […]

## CC(=O)N(O)CCCCCNC(=O)CCC(=O)N(O)CCCCCNC(=O)CCC(=O)N(O)CCCCCN [DFO, Deferoxamine mesylate]
E-cadherin [1]; 2-5 μM, 48 hours
  E-cadherin expression in RL cells: suppressed E-cadherin expression
  morphology of RL cells: changed the morphology of RL cells to a mesenchymal phenotype

## O=c1cc(N2CCOCC2)oc2c(-c3ccccc3)cccc12 [LY294002]
VEGF
  maximum inhibition of VEGF production, each inhibitor alone: approximately 50%

## CC(C)C[C@@H](C=O)NC(=O)[C@H](CC(C)C)NC(=O)[C@H](CC(C)C)NC(=O)OCc1ccccc1 [MG132] (Cbz-Leu-Leu-Leu-aldehyde)
E-cadherin [1]; 0.5 nM for 2 days
  E-cadherin protein in EV cells: increased E-cadherin protein
  E-cadherin protein in R cells: increased E-cadherin protein
  E-cadherin protein in RL cells: only slightly increased E-cadherin
E-cadherin [1]; 0.5 nM for 48 hours
  phenotype of R cells: reverted R cells to an epithelial phenotype

## N#CC(=C(/N)Sc1ccccc1N)/C(C#N)=C(\N)Sc1ccccc1N [U0126]
VEGF
  maximum inhibition of VEGF production, each inhibitor alone: approximately 50%
E-cadherin [1]
  effect on ras-induced EMT: reversed ras-induced EMT
E-cadherin [2]
  E-cadherin phosphorylation: markedly downregulated

## O=S(=O)([O-])[O-].O=S(=O)([O-])[O-].[Fe+3].[NH4+] [ferric ammonium sulfate]
E-cadherin [1]; 50 μM
  phenotype of R cells after adding iron: did not change their phenotype

## [Ga] [gallium]
E-cadherin [3]
  induction of E-cadherin in mesenchyme when iron is substituted: greatly diminished

B1: Lipo:Sid:Fe: recombinant mouse lipocalin 2 mixed with iron-loaded bacterial siderophore enterochelin (protein, UniProt P11672 21-200, looked up)
Neutrophil …: QDSTQNLIPAPSLLTVPLQPDFRSDQFRGRWYVVGLAGNAVQKKTEGSFTMYSTIYELQENNSYNVTSILVRDQDQGCRYWIRTFVPSSRAGQFTLGNMHRYPQVQSYNVQVATTDYNQFAMVFFRKTSENKQYFKITLYGRTKELSPELKERFTRFAKSLGLKDDNIIFSVPTDQCIDN
modifications: iron-loaded enterochelin siderophore complex
notes: recombinant mouse lipocalin 2 mixed with iron-loaded bacterial siderophore enterochelin
E-cadherin [1]
  rank order of effect on R cell epithelial morphology and E-cadherin expression: Lipo:Sid:Fe>Lipo:Sid>Lipo
raf, MEK, and ERK1/2; 50 μg/ml for 48 hours
  total ras expression: unchanged
raf, MEK, and ERK1/2; 50 μg/ml for 48 hours serum free, then 10% FCS 20 minutes
  ras induced phosphorylation of raf, MEK, and ERK1/2: largely abrogated
[4]; EV cells transfected with H-ras V12
  SRE-luciferase activity induced by CA-H-ras: downregulated SRE-luciferase activity
[4]; EV cells transfected with MEK-DD
  inhibition of MEK-DD induced SRE-luciferase activity: unable to inhibit this effect

B2: Lipo: recombinant mouse lipocalin 2 protein expressed in E. coli BL21, without siderophore (protein, UniProt P11672 21-200, looked up)
Neutrophil …: QDSTQNLIPAPSLLTVPLQPDFRSDQFRGRWYVVGLAGNAVQKKTEGSFTMYSTIYELQENNSYNVTSILVRDQDQGCRYWIRTFVPSSRAGQFTLGNMHRYPQVQSYNVQVATTDYNQFAMVFFRKTSENKQYFKITLYGRTKELSPELKERFTRFAKSLGLKDDNIIFSVPTDQCIDN
E-cadherin [1]
  rank order of effect on R cell epithelial morphology and E-cadherin expression: Lipo:Sid:Fe>Lipo:Sid>Lipo

B3: Lipo:Sid: recombinant mouse lipocalin 2 mixed with iron-unloaded bacterial siderophore enterochelin (protein, UniProt P11672 21-200, looked up)
Neutrophil …: QDSTQNLIPAPSLLTVPLQPDFRSDQFRGRWYVVGLAGNAVQKKTEGSFTMYSTIYELQENNSYNVTSILVRDQDQGCRYWIRTFVPSSRAGQFTLGNMHRYPQVQSYNVQVATTDYNQFAMVFFRKTSENKQYFKITLYGRTKELSPELKERFTRFAKSLGLKDDNIIFSVPTDQCIDN
modifications: iron-free enterochelin siderophore
notes: recombinant mouse lipocalin 2 mixed with iron-unloaded bacterial siderophore enterochelin
E-cadherin [1]
  rank order of effect on R cell epithelial morphology and E-cadherin expression: Lipo:Sid:Fe>Lipo:Sid>Lipo
